We go through 37 compounds from patent US10487068B2, “Pyridazine derivatives as RORc modulators” (Genentech, Inc., priority 2015, dated 2019).

A word on the IC50: it is the concentration needed to halve the response being measured. Low values mean greater potency, high ones weaker potency.

The assay has as its target T1, RORc ligand binding domain (Homo sapiens, UniProt P51449).
T1 sequence (P51449 269-508 limits assumed): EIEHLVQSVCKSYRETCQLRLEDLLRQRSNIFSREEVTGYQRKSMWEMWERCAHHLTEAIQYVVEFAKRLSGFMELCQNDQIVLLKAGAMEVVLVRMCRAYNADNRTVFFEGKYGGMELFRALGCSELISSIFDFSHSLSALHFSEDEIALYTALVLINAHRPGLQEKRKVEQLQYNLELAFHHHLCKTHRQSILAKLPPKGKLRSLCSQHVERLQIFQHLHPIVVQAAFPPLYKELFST
Kind of assay: In Vitro RORc Ligand Binding Assay. Particulars: RORc IC50, radioligand 25-[3H]hydroxycholesterol 6 nM; 0.6 ug/mL RORc receptor; 3 h at 25° C.

On to `COC(=O)c1nccc([C@@]23CC[C@@H](c4cc(-c5c(F)cccc5Cl)nnc42)C3(C)C)n1` [Example 160], for which the IC50 was found to be 13.1 nM. The same measure for `CC1(C)[C@H]2CC[C@]1(c1ccnc(C(=O)NCCO)n1)c1nnc(-c3c(F)cccc3Cl)cc12` [Example 161]: 44 nM. In the case of `CC1(C)[C@H]2CC[C@]1(c1cccc(S(=O)(=O)NCCO)n1)c1nnc(-c3c(F)cccc3F)cc12` [Example 162, 6-((5R,8S)-3-(2,6-difluorophenyl)-9,9-dimethyl-5,6,7,8-tetrahydro-5,8-methanocinnolin-8-yl)-N-(2-hydroxyethyl)pyridine-2-sulfonamide] it was 23 nM. In the case of `CC1(C)[C@H]2CC[C@]1(c1ccnc(NCc3nnc[nH]3)n1)c1nnc(-c3c(F)cccc3F)cc12` [Example 163] it was 19.2 nM; in that of `CC1(C)[C@H]2CC[C@]1(c1cccc(NS(=O)(=O)C3COC3)n1)c1nnc(-c3c(F)cccc3F)cc12` [Example 164, N-(6-((5R,8S)-3-(2,6-difluorophenyl)-9,9-dimethyl-5,6,7,8-tetrahydro-5,8-methanocinnolin-8-yl)pyridin-2-yl)oxetane-3-sulfonamide], 32.4 nM; in that of `CC1(C)[C@H]2CC[C@]1(c1cc(C#N)ncc1Br)c1nnc(-c3c(F)cccc3F)cc12` [Example 165, 5-bromo-4-((5R,8S)-3-(2,6-difluorophenyl)-9,9-dimethyl-5,6,7,8-tetrahydro-5,8-methanocinnolin-8-yl)picolinonitrile], 25.1 nM.

With `CC1(C)[C@H]2CC[C@]1(c1nc(C#N)ccc1Br)c1nnc(-c3c(F)cccc3F)cc12` [Example 166, 5-bromo-6-((5R,8S)-3-(2,6-difluorophenyl)-9,9-dimethyl-5,6,7,8-tetrahydro-5,8-methanocinnolin-8-yl)picolinonitrile], the IC50 was determined as 3.9 nM. This IC50 is about 6.4-fold lower than that of the compound before.

The compound `Cc1nc(C#N)c(C#N)nc1[C@@]12CC[C@@H](c3cc(-c4c(F)cccc4F)nnc31)C2(C)C` [Example 167, 5-((5R,8S)-3-(2,6-difluorophenyl)-9,9-dimethyl-5,6,7,8-tetrahydro-5,8-methanocinnolin-8-yl)-6-methylpyrazine-2,3-dicarbonitrile] registered an IC50 of 548 nM.

For the compound `CC1(C)[C@H]2CC[C@]1(c1nc(C(F)(F)F)ncc1Br)c1nnc(-c3c(F)cccc3F)cc12` [Example 168], the IC50 was found to be 20.1 nM.

The compound `COC(=O)c1cnc(C)c([C@@]23CC[C@@H](c4cc(-c5c(F)cccc5F)nnc42)C3(C)C)n1` [Example 169, methyl 6-((5R,8S)-3-(2,6-difluorophenyl)-9,9-dimethyl-5,6,7,8-tetrahydro-5,8-methanocinnolin-8-yl)-5-methylpyrazine-2-carboxylate] showed an IC50 of 10 nM. This IC50 is about 2-fold lower than that of the compound before. The same measure for `Cc1ncc(C(=O)NCCO)nc1[C@@]12CC[C@@H](c3cc(-c4c(F)cccc4F)nnc31)C2(C)C` [Example 170, 6-((5R,8S)-3-(2,6-difluorophenyl)-9,9-dimethyl-5,6,7,8-tetrahydro-5,8-methanocinnolin-8-yl)-N-(2-hydroxyethyl)-5-methylpyrazine-2-carboxamide]: 119 nM. The same measure for `Cc1nnc(-c2ccnc([C@@]34CC[C@@H](c5cc(-c6c(F)cccc6F)nnc53)C4(C)C)n2)[nH]1` [Example 171, (5R,8R)-3-(2,6-difluorophenyl)-9,9-dimethyl-8-(4-(5-methyl-4H-1,2,4-triazol-3-yl)pyrimidin-2-yl)-5,6,7,8-tetrahydro-5,8-methanocinnoline]: 36.6 nM.

Compound `CC1(C)[C@H]2CC[C@]1(c1ccc(C#N)nc1)c1nnc(-c3c(F)cccc3Cl)cc12` [Example 172, 5-((5R,8S)-3-(2-chloro-6-fluorophenyl)-9,9-dimethyl-5,6,7,8-tetrahydro-5,8-methanocinnolin-8-yl)picolinonitrile] showed an IC50 of 159 nM.

`CC1(C)[C@H]2CC[C@]1(c1cccc(C#N)n1)c1nnc(-c3c(F)cccc3Cl)cc12` [Example 173, 6-((5R,8S)-3-(2-chloro-6-fluorophenyl)-9,9-dimethyl-5,6,7,8-tetrahydro-5,8-methanocinnolin-8-yl)picolinonitrile]: the IC50 was 4.5 nM. Compound `CC1(C)[C@H]2CC[C@]1(c1cncc(-c3c[nH]c(=O)[nH]3)n1)c1nnc(-c3c(F)cccc3F)cc12` [Example 174, 4-(6-((5R,8S)-3-(2,6-difluorophenyl)-9,9-dimethyl-5,6,7,8-tetrahydro-5,8-methanocinnolin-8-yl)pyrazin-2-yl)-1H-imidazol-2(3H)-one] came in with an IC50 of 8.5 nM. In turn, `Cc1ncc(-c2ccnc([C@@]34CC[C@@H](c5cc(-c6c(F)cccc6F)nnc53)C4(C)C)c2)o1` [Example 175] displayed an IC50 of 13.4 nM. As for `COC(=O)c1nc(C)cc([C@@]23CC[C@@H](c4cc(-c5c(F)cccc5F)nnc42)C3(C)C)n1` [Example 176], the IC50 was determined as 12.9 nM. The same measure for `CC1(C)[C@H]2CC[C@]1(c1cc(N)ncc1Cl)c1nnc(-c3c(F)cccc3F)cc12` [Example 177, 5-chloro-4-((5R,8S)-3-(2,6-difluorophenyl)-9,9-dimethyl-5,6,7,8-tetrahydro-5,8-methanocinnolin-8-yl)pyridin-2-amine]: 24.4 nM; for `Cc1nnc(-c2nccc([C@@]34CC[C@@H](c5cc(-c6c(F)cccc6F)nnc53)C4(C)C)n2)[nH]1` [Example 178]: 27.8 nM; for `CC1(C)[C@H]2CC[C@]1(c1cccc(-c3n[nH]c(=O)[nH]3)n1)c1nnc(-c3c(F)cccc3F)cc12` [Example 179, 3-(6-((5R,8S)-3-(2,6-difluorophenyl)-9,9-dimethyl-5,6,7,8-tetrahydro-5,8-methanocinnolin-8-yl)pyridin-2-yl)-1H-1,2,4-triazol-5(4H)-one]: 15 nM.

`CC1(C)[C@H]2CC[C@]1(c1ccnc(-c3nnc(CO)[nH]3)n1)c1nnc(-c3c(F)cccc3F)cc12` [Example 180] returned a concentration for half-maximal inhibition (IC50) of 28 nM. The same measure for `CC1(C)[C@H]2CC[C@]1(c1ccnc(-n3ccnc3)n1)c1nnc(-c3c(F)cccc3F)cc12` [Example 181]: 3.7 nM. In the case of `CC1(C)[C@H]2CC[C@]1(c1ccnc(-n3cncn3)n1)c1nnc(-c3c(F)cccc3F)cc12` [Example 182], the IC50 is 4.2 nM. In the case of `CNS(=O)(=O)c1nccc([C@@]23CC[C@@H](c4cc(-c5c(F)cccc5F)nnc42)C3(C)C)n1` [Example 183] it was 15.6 nM; in that of `CC1(C)[C@H]2CC[C@]1(c1cncc(-c3cnco3)n1)c1nnc(-c3c(F)cccc3F)cc12` [Example 184, 5-(6-((5R,8S)-3-(2,6-difluorophenyl)-9,9-dimethyl-5,6,7,8-tetrahydro-5,8-methanocinnolin-8-yl)pyrazin-2-yl)oxazole], 3.3 nM; in that of `CC1(C)[C@H]2CC[C@]1(c1cncc(=O)[nH]1)c1nnc(-c3c(F)cccc3F)cc12` [Example 185, 6-((5R,8S)-3-(2,6-difluorophenyl)-9,9-dimethyl-5,6,7,8-tetrahydro-5,8-methanocinnolin-8-yl)pyrazin-2(1H)-one], 30.5 nM. The same measure for `COC(=O)c1ncc(Br)c([C@@]23CC[C@@H](c4cc(-c5c(F)cccc5F)nnc42)C3(C)C)n1` [Example 187]: 26.4 nM. The same measure for `CC1(C)[C@H]2CC[C@]1(c1ccnc(-n3ccnn3)n1)c1nnc(-c3c(F)cccc3F)cc12` [Example 188]: 7.5 nM; for `CC1(C)[C@H]2CC[C@]1(c1ccnc(-n3nccn3)n1)c1nnc(-c3c(F)cccc3F)cc12` [Example 189]: 14.8 nM; for `CC1(C)[C@H]2CC[C@]1(c1ccnc(S(=O)(=O)NCCO)n1)c1nnc(-c3c(F)cccc3F)cc12` [Example 190]: 13.6 nM. For `CC1(C)[C@H]2CC[C@]1(c1cccc(S(=O)(=O)NCC3(O)COC3)n1)c1nnc(-c3c(F)cccc3F)cc12` [Example 191, 6-((5R,8S)-3-(2,6-difluorophenyl)-9,9-dimethyl-5,6,7,8-tetrahydro-5,8-methanocinnolin-8-yl)-N-((3-hydroxyoxetan-3-yl)methyl)pyridine-2-sulfonamide], the IC50 was 24.6 nM. In the case of `CC1(C)[C@H]2CC[C@]1(c1ccnc(C#N)c1C#N)c1nnc(-c3c(F)cccc3F)cc12` [Example 192, 4-((5R,8S)-3-(2,6-difluorophenyl)-9,9-dimethyl-5,6,7,8-tetrahydro-5,8-methanocinnolin-8-yl)pyridine-2,3-dicarbonitrile] it was 124 nM; in that of `CC1(C)[C@H]2CC[C@]1(c1nc(C(=O)NCCO)ncc1Br)c1nnc(-c3c(F)cccc3F)cc12` [Example 193], 57.7 nM; in that of `CC1(C)[C@H]2CC[C@]1(c1cncc(C(=O)NCCO)c1)c1nnc(-c3c(F)cccc3F)cc12` [Example 194, 5-((5R,8S)-3-(2,6-difluorophenyl)-9,9-dimethyl-5,6,7,8-tetrahydro-5,8-methanocinnolin-8-yl)-N-(2-hydroxyethyl)nicotinamide], 24.2 nM. The compound `CC1(C)[C@H]2CC[C@]1(c1cncc(-n3cncn3)n1)c1nnc(-c3c(F)cccc3F)cc12` [Example 195] yielded an IC50 of 6.3 nM. Against the preceding compound, the IC50 is about 3.8-fold lower. The same measure for `CC(C)(O)c1coc(-c2cncc([C@@]34CC[C@@H](c5cc(-c6c(F)cccc6F)nnc53)C4(C)C)n2)n1` [Example 196, 2-(2-(6-((5R,8S)-3-(2,6-difluorophenyl)-9,9-diimethyl-5,6,7,8-tetrahydro-5,8-methanocinnolin-8-yl)pyrazin-2-yl)oxazol-4-yl)propan-2-ol]: 6.5 nM; for `CC1(C)[C@H]2CC[C@]1(c1cncc(C(=O)N[C@H]3C[C@](C)(O)C3)n1)c1nnc(-c3c(F)cccc3F)cc12` [Example 197, 6-((5R,8S)-3-(2,6-difluorophenyl)-9,9-dimethyl-5,6,7,8-tetrahydro-5,8-methanocinnolin-8-yl)-N-((1r,3S)-3-hydroxy-3-methylcyclobutyl)pyrazine-2-carboxamide]: 14 nM.
